Values joined by “and” are separate entries in the source; they are usually repeats but may differ in a detail not shown here. Equal entries are not always repeated.
What was measured:
[1] = test system: ALP activity in MC3T3-E1; test: Measurement of ALP activity in MC3T3-E1; format: cell-based, mouse; conditions: MC3T3-E1, day 14, mean±s.d.
Description: ALP activity was assessed using Quantichrom ALP Assay Kit (Bioassay Systems, Hayward, Calif., USA) according to manufacturer's instructions.
Briefly, 3×10^3 MC3T3-E1 cells were dispensed in a 96-well plate together with […] of complete α-MEM containing ascorbic acid (50 μg/mL) and 10 mM β-glycerophosphate per well. Here, osmundacetone (10 μM and 50 μM) was added or not added, and the medium was exchanged every 3-4 days.
On day 14 of the incubation, the colorimetric change due to ALP activity in the cell fraction was measured using a spectrophotometer plate reader (Molecular Devices, Sunnyvale, Calif., USA) at 405 nm (Kim et al., 2016). The % activation of ALP activity was shown by comparing ALP activity of cells treated with an experimental compound and ALP activity of the non-treated control cells.

[2] = MTT assay cytotoxicity, cancer cell lines (summary); format: cell-based; conditions: human cancer cell lines (AGS, PC3) compared with human normal cell lines (HaCaT, ADMSC); read-out: cancer selectivity index in cell cytotoxicity
Description: (§1) MTT assay was as follows.
(§2) Cells were incubated at 1×10^3 cells/well in a 96-well plate containing DMEM with 10% fetal bovine serum (FBS) at 5% CO2 and 37° C., and then osmundacetone was added to the cell medium, followed by incubation for 24 hours. Thereafter, 100 μL of MTT (0.5 mg/ml PBS) was administered, followed by incubation for 2 hours. Thereafter, the medium was removed from each well, and 100 μL of DMSO was added. After incubation for 10 minutes, the absorbance was measured using a microplate reader (SPCTRA MAX 340PC, Molecular Devices, USA) at 570 nm. The absorbance is an indicator showing the number of living cells, and calculated by the following equation.
(§3) Cell proliferation (%)=OD550(sample)/OD550(control)

[3] = test system: cancer cell lines; test: as above; format: cell-based; conditions: summary range
Description: as §1, §2, §3

[4] = test system: OCN in MC3T3-E1 cells; test: Western blot, OCN production by osteoblasts; format: cell-based, mouse; conditions: 50 μM
Description: In order to analyze the expression of osteoblast differentiation markers during a differentiation procedure, 3×10^5 MC3T3-E1 cells were dispensed in a 100 mm culture plate together with 10 mL of complete α-MEM containing ascorbic acid (50 μg/mL) and 10 mM R-glycerophosphate per well. Here, 50 μM osmundacetone was added or not added, and the cells were incubated at 37 […] in a 5% CO2 incubator for 21 days while the medium was exchanged every 3-4 days.
The negative control cells were cultured without differentiation factors, and the osteoblasts and a culture thereof were dispensed, and then collected on day 7, 14, or 21.
The cells were lysed using RIPA buffer, and then the expression of runt-related transcription factor 2 (RUNX2) was analyzed. Also for analysis of OCN secretion, the culture was collected, and normalized by cellular DNA.
Proteins were analyzed using SDS-PAGE on 12.5% […] gels, and transferred on polyvinylidene difluoride (PVDF) membrane through electrophoresis.
The membrane was blocked using non-fat milk, and examined using anti-RUNX2 (D1H7) rabbit monoclonal antibody (#8486, Cell Signaling Technology, MA, USA) or anti-OCN (FL-95) antibody (# sc-30045, Santa Cruz Biotechnology, TX, USA). Anti-actin antibody (# M177-3, MEDICAL & BIOLOGICAL LABORATORIES CO., LTD., Nagoya, Aichi, Japan) was used as an internal reference. […]

[5] = test system: osteoclasts co-incubated with MC3T3-E1 cells; test: Co-culture of osteoclasts and osteoblasts: osteoclast proliferation and differentiation; format: cell-based, mouse; conditions: 10 μM
Description: 1×10^5 C57BL/6 mouse bone marrow mononuclear cells per well of a 48-well plate were prepared in the same manner as described above, and co-incubated together with 1.5×10^4 MC3T3-E1 murine osteoblasts, using 500 μL of α-MEM containing 10% FBS and 1% antibiotic (100 U/mL penicillin G and […] streptomycin) in the conditions of 37° C. and 5% CO2 while the medium was exchanged every three days.
Positive control cells were co-incubated together with osteoclast differentiation factors M-CSF (60 ng/mL) and RANKL (150 ng/mL), and osteoblast differentiation factors ascorbic acid (50 μg/mL) and 10 mM R-glycerophosphate.
Negative control cells were incubated by adding only M-CSF as a differentiation factor. In order to examine effects of osmundacetone on the differentiation of osteoclasts and osteoblasts, osmundacetone were administered at a final concentration of 10 μM into the positive control cells on day 1 after the cells were dispensed on the plate.
In order to investigate whether or not osmundacetone has ability to inhibit osteoclast differentiation and activate osteoblast differentiation simultaneously, bone marrow mononuclear cells collected from C57BL/6 mice and MC3T3-E1 cells as osteoblast precursor cells were co-incubated in a 48-well plate at cell concentrations of 1×10^5 bone marrow cells and 3×10^3 MC3T3-E1 cells per well. […]

[6] = test system: AGS human stomach adenocarcinoma; test: MTT assay cytotoxicity; format: cell-based; conditions: 24 hours
Description: (§4) AGS human stomach adenocarcinoma cells (# KCLB 21739), A549 human lung carcinoma cells (# KCLB 10185), Caki-1 human kidney carcinoma cells (# KCLB 30046), T24 human bladder carcinoma cells (# KCLB 30004), TC-1 P3 HPV-16E7-expressing mouse pulmonary epithelial cells, MHC class I (provided by Tae-Woo Kim, a professor of Korea University) were incubated using RPMI (Rosewell Park Memorial Institute) 1640 (# RPMI-A, Capricorn Scientific, Ebsdorfergrund, Germany) in the conditions of 37° C. and 5% CO2.
(§5) The compound isolated from Osmunda japonica, prepared in section 1 of <Example 1>, was investigated for cytotoxicity using MTT assay.
as §1
as §2, with “equation. The reproducibility thereof was validated by three experiments. […]” for “equation.”

[7] = test system: A549 human lung carcinoma; test: MTT assay cytotoxicity; format: cell-based; conditions: cancer cell
Description: as §4, §5, §1
as §2, with “equation. The reproducibility thereof was validated by three experiments. […]” for “equation.”

With `CC(=O)/C=C/c1ccc(O)c(O)c1` [Osmundacetone, (3E)-4-(3,4-dihydroxyphenyl)-3-buten-2-one] the “% Activation of ALP activity” value ([1]; 10 μM) was 115 ± 9.4%, the “% Activation of ALP activity” value ([1]; 50 μM) was 279 ± 61 % and the “% Activation of ALP activity” value ([1]; 50 μM, listed as osmundacetone) was 279±61% and 280%. The selectivity ratio at 24 h [2] was 45 to 60, the “LD50 for several cancer cell lines” value [3] was 50 to 70 µM and the “OCN production by osteoblasts, increase compared with non-treated positive control cells” value ([4]; day 14) was 2.9 times. For the same molecule, the “OCN production by osteoblasts, increase compared with non-treated positive control cells” value ([4]; day 21) was 1.2 times, the “proliferation and differentiation of osteoclasts in co-incubation” value [5] was “completely inhibited” and the “mature osteoclasts in co-incubation” value ([5]; day 6 after administration) was “completely disappeared”. For the same molecule, the “LD50 (MTT assay)” value [6] was 59.9 ± 6.1 µM and the “LD50 (μM) Based on MIT Assay” value [7] was >5,000 μM.
